Structures are written as SMILES. Calls of active or inactive are those of the source. For most assays here, no stated cut-off is given here; in the data, actives have a measured Kd and inactives only a lower limit. A value given as a limit tells only on which side of the number the result lay.

The source of these data is ChEMBL document CHEMBL3991601, “The target landscape of clinical kinase drugs” (Science, 2017).

In one assay the target is T1, Heme oxygenase 2 (Homo sapiens, UniProt P30519).
T1 sequence (P30519 whole entry): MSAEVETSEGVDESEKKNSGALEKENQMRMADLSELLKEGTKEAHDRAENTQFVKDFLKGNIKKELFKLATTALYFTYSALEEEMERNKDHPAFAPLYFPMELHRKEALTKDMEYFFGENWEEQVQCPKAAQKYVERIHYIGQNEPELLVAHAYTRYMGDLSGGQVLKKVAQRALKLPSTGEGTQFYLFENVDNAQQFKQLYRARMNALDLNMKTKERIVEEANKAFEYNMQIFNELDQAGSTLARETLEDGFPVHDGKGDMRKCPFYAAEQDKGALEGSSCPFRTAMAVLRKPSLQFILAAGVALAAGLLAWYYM

Assay [1] has as its target T2, Serine/threonine-protein kinase A-Raf (Homo sapiens, UniProt P10398).
T2 sequence (P10398 whole entry): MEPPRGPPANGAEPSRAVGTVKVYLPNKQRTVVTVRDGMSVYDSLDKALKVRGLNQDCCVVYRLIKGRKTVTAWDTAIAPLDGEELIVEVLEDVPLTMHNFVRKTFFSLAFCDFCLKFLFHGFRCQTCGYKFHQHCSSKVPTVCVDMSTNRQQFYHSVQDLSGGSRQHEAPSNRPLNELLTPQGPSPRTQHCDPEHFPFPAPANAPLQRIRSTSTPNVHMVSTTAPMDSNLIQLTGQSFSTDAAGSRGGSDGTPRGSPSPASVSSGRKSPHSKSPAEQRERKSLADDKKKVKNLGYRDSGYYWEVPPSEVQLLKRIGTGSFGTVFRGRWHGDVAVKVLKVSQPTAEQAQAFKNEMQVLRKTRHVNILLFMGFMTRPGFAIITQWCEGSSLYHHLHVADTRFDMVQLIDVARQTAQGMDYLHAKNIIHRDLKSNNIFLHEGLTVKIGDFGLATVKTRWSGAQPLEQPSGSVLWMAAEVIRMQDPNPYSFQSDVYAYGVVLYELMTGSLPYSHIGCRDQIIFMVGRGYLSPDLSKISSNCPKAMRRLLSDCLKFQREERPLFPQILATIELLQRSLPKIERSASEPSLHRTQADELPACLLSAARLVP

Assay [2] addresses Fibroblast growth factor receptor 1 (Homo sapiens, UniProt P11362).
Assay [3] has as its target Proto-oncogene tyrosine-protein kinase Src (Homo sapiens, UniProt P12931).
The target in assay [4] is Serine/threonine-protein kinase/endoribonuclease IRE1 (Homo sapiens, UniProt O75460).
The target in assay [5] is Serine/threonine-protein kinase PAK 4 (Homo sapiens, UniProt O96013).
Serine/threonine-protein kinase PAK 4, sequence (O96013 whole entry): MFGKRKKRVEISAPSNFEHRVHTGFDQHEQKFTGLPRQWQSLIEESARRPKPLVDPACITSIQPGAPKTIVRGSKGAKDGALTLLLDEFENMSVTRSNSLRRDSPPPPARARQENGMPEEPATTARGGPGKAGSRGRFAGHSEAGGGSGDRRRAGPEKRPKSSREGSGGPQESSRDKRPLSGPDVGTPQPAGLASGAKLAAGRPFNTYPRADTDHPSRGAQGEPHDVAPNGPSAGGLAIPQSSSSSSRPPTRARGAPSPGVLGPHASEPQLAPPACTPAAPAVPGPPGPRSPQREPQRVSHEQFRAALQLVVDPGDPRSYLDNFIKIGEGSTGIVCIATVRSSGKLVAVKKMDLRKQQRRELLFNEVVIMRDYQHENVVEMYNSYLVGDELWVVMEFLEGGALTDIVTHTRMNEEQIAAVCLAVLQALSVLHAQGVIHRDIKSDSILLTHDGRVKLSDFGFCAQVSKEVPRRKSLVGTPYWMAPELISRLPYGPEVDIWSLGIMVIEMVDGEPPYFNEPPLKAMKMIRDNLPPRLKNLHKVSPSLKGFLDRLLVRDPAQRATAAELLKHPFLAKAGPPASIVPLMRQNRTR
The target in assay [6] is T3, Serine/threonine-protein kinase ULK3 (Homo sapiens, UniProt Q6PHR2).
T3 sequence (Q6PHR2 whole entry): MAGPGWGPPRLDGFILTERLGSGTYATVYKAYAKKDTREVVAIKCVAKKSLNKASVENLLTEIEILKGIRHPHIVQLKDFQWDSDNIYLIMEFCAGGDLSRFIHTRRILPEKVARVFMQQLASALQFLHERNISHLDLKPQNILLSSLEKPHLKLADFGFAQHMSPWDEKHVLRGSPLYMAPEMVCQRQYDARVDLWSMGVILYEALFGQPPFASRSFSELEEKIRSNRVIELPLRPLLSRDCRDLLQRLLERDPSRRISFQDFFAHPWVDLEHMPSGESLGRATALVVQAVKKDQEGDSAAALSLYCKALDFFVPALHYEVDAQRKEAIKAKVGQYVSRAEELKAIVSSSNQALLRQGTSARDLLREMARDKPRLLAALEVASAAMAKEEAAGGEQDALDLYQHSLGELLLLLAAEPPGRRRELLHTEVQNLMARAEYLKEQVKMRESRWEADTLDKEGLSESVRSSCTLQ

Assay [7] deals with Chromodomain-helicase-DNA-binding protein 4 (Homo sapiens, UniProt Q14839).
Chromodomain-helicase-DNA-binding protein 4, sequence (Q14839 whole entry): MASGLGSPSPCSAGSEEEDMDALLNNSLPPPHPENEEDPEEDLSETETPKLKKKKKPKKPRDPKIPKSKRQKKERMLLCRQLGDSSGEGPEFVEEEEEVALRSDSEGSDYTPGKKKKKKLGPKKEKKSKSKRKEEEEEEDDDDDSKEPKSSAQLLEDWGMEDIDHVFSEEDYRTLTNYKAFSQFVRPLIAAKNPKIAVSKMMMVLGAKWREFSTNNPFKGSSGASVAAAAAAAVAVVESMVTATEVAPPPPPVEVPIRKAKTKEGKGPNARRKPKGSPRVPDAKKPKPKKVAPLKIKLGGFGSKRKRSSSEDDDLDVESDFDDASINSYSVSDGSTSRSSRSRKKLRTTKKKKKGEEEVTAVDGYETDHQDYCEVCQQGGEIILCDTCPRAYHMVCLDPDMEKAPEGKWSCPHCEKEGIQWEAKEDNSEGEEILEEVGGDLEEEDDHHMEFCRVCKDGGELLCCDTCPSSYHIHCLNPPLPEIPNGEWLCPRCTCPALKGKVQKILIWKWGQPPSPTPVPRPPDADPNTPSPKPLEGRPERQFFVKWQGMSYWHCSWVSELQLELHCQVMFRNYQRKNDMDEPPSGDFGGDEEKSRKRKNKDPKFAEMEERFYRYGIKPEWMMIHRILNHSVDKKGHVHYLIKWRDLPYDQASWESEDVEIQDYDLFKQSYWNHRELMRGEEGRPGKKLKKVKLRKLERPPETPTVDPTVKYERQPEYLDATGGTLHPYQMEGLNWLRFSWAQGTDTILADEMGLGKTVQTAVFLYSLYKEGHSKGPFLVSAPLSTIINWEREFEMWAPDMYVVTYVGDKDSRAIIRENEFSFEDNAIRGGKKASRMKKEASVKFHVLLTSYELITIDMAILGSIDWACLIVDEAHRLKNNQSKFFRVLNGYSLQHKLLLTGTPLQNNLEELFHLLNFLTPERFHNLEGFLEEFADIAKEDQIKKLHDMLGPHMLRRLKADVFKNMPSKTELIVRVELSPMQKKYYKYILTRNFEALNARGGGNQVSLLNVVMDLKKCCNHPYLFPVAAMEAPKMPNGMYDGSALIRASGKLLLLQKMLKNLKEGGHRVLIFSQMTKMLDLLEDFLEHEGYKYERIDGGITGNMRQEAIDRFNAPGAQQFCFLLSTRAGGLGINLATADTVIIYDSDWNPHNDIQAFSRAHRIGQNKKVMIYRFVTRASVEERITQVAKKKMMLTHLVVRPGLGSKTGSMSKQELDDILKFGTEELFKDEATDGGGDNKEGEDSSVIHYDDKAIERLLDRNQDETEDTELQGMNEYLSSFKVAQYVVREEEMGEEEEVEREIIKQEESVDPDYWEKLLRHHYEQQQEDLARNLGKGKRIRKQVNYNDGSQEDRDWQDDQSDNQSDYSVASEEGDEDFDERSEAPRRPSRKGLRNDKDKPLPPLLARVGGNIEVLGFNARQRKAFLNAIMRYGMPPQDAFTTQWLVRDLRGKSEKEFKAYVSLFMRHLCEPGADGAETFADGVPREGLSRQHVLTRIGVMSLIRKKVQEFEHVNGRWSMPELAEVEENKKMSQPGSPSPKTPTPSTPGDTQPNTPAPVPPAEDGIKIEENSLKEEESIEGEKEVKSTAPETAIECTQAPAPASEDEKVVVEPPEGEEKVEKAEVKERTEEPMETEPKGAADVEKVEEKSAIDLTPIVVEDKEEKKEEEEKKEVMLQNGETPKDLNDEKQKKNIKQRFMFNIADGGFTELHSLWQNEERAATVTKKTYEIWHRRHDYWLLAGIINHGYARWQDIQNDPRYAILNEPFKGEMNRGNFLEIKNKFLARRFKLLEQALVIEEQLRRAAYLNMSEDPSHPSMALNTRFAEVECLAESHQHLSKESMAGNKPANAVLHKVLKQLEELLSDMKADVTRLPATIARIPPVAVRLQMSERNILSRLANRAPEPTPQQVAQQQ
Assay [8] deals with T4, Bone morphogenetic protein receptor type-2 (Homo sapiens, UniProt Q13873).
T4 sequence (Q13873 whole entry): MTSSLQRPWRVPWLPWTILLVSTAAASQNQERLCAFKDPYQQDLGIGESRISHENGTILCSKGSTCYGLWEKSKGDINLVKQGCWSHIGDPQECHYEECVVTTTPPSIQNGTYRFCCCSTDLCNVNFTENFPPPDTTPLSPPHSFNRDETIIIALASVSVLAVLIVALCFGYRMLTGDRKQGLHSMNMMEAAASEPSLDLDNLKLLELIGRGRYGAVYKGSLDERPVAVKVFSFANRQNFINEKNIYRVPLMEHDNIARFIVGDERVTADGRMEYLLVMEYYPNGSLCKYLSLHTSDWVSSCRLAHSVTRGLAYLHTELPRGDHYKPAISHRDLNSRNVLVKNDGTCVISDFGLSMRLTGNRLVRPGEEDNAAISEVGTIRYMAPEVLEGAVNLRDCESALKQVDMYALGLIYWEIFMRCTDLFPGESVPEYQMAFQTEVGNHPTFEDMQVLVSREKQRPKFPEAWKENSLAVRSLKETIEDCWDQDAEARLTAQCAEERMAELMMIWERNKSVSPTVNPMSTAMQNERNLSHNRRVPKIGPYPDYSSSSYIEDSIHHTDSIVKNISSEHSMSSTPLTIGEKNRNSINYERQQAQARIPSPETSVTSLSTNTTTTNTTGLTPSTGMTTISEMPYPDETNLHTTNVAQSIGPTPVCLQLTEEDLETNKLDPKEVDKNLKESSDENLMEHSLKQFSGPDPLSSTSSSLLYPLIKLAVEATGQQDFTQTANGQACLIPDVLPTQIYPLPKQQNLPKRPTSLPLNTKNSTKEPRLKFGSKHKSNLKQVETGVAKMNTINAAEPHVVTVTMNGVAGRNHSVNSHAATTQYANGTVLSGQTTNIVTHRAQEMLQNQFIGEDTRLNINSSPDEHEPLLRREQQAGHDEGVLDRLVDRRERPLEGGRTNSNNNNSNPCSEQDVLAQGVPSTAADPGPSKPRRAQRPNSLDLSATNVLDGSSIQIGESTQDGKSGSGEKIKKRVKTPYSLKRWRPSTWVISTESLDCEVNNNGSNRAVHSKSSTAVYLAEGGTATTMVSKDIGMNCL

The target in the next assay is LIM domain kinase 2 (Homo sapiens, UniProt P53671).
LIM domain kinase 2, sequence (P53671 whole entry, the tested form may be a part): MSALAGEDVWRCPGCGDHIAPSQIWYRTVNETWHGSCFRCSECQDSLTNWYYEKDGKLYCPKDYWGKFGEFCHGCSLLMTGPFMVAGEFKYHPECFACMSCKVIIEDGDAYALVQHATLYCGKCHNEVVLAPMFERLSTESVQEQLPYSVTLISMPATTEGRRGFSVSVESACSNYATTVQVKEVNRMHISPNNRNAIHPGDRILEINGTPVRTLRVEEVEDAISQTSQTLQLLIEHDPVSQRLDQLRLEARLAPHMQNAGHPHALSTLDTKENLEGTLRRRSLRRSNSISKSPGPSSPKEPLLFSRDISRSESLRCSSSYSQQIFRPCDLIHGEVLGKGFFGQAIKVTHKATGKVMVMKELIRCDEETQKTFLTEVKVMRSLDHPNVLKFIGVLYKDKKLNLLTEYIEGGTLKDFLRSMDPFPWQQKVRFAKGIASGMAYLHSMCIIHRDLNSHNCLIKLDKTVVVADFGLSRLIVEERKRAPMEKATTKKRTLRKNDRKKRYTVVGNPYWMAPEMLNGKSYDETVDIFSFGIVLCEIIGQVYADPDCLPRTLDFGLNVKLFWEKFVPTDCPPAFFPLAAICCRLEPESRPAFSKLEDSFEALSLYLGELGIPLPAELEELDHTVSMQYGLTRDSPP

Fibroblast growth factor receptor 1, sequence (P11362 whole entry): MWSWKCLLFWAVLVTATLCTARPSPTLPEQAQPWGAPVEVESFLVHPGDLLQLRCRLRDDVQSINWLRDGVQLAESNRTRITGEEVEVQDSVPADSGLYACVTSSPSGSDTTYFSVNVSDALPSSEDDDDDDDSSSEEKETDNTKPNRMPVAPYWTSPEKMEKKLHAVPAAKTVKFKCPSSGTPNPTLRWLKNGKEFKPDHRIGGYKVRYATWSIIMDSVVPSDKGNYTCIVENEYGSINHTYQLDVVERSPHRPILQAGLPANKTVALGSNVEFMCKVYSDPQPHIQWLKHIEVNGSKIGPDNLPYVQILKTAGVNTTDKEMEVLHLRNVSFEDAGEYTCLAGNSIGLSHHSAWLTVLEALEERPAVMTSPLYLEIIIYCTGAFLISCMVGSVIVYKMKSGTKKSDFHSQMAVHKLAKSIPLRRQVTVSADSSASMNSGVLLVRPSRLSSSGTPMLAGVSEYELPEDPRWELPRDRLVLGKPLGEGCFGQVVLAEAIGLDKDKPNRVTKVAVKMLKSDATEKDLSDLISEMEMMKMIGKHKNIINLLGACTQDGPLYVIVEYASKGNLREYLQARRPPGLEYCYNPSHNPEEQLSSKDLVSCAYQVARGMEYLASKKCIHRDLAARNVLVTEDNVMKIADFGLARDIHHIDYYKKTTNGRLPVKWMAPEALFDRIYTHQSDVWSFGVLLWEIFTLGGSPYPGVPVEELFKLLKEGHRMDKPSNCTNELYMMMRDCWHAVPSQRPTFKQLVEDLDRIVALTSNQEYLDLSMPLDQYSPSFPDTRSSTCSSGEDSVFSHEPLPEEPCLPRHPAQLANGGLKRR
Proto-oncogene tyrosine-protein kinase Src, sequence (P12931 2-536 limits assumed): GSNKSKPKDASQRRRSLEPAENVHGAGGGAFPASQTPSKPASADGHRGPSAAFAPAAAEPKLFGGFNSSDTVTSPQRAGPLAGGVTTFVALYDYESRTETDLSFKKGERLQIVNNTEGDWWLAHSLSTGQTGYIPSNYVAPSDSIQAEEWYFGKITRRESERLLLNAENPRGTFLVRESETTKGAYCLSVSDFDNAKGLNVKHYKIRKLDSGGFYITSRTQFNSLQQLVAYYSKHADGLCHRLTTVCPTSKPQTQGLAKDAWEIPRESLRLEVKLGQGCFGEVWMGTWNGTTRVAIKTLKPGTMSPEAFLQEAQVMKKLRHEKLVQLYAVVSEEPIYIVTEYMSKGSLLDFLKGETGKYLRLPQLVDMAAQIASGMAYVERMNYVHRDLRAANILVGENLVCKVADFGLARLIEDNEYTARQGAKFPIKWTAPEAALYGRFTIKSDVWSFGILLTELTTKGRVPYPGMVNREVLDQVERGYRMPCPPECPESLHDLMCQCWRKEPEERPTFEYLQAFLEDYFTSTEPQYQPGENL

In the case of `Cc1ccc(-n2nc(C(C)(C)C)cc2NC(=O)NCc2cc(F)ccc2Oc2ccc3c(cnn3CCO)c2)cc1` [PEXMETINIB], the Kd was > 30 µM (inactive) on Heme oxygenase 2; > 30 µM (inactive) in [1]; 2.67 µM (active) in assay [2]; > 30 µM (inactive) in assay [3]; > 30 µM (inactive) in [4]; > 30 µM (inactive) in [5]. Moreover, the Kd (in assay [6]; in [7]; in [8]; at LIM domain kinase 2) was > 30 µM (inactive) in each case.

Take `CNS(=O)(=O)Nc1nccc(Cc2c(C)c3ccc(Oc4ncccn4)cc3oc2=O)c1F` [AVUTOMETINIB]: the Kd (at Heme oxygenase 2; in [1]; in [2]; in [3]; in assay [4]; in assay [5]) was > 30 µM (inactive) throughout. Also, the Kd (in assay [6]; in assay [7]; in [8]; at LIM domain kinase 2) was > 30 µM (inactive) each time.

Consider `COc1ccc(-c2ccc3c(N4CCOC[C@@H]4C)nc(N4CCOC[C@@H]4C)nc3n2)cc1CO` [AZD-8055], for which the Kd (on Heme oxygenase 2; in assay [1]; in [2]; in assay [3]; in assay [4]; in [5]) was > 30 µM (inactive) throughout. Besides, the Kd (in assay [6]; in assay [7]; in assay [8]; at LIM domain kinase 2) was > 30 µM (inactive) in each case.

Regarding `C1=C/COCc2cc(ccc2OCCN2CCCC2)Nc2nccc(n2)-c2cccc(c2)COC/1` [PACRITINIB], the Kd (at Heme oxygenase 2; in assay [1]; in assay [2]; in [3]; in [4]; in assay [5]) was > 30 µM (inactive) each time. The Kd is > 30 µM (inactive) in assay [6], > 30 µM (inactive) in [7], > 30 µM (inactive) in assay [8] and 52.1 µM (active) on LIM domain kinase 2.

Take `O=C(O)[C@]1(Cc2cccc(Nc3nccs3)n2)CC[C@@H](Oc2cccc(Cl)c2F)CC1` [MK-5108]: the Kd (on Heme oxygenase 2; in assay [1]; in assay [2]; in [3]; in [4]; in [5]) was > 30 µM (inactive) in each case. For the same compound, the Kd (in assay [6]; in assay [7]; in assay [8]; on LIM domain kinase 2) was > 30 µM (inactive) in each case.

Consider `COc1cc(N2CCC(N3CCN(C)CC3)CC2)ccc1Nc1ncnc(Nc2ccccc2S(=O)(=O)C(C)C)n1` [ASP-3026], for which the Kd is > 30 µM (inactive) at Heme oxygenase 2; > 30 µM (inactive) in assay [1]; > 30 µM (inactive) in [2]; > 30 µM (inactive) in assay [3]; 12.2 µM (active) in [4]; > 30 µM (inactive) in [5]. Moreover, the Kd in assay [6] was > 30 µM (inactive); in assay [7], > 30 µM (inactive); in [8] it was > 30 µM (inactive); at LIM domain kinase 2, 5.31 µM (active).

With `CN1CCC(CNc2ccc3ncc(-c4cccc(OC(F)(F)F)c4)n3n2)CC1` [SGI-1776], the Kd (at Heme oxygenase 2; in assay [1]; in assay [2]; in [3]; in [4]; in assay [5]) was > 30 µM (inactive) in each case. Also, the Kd (in [6]; in assay [7]; in [8]; on LIM domain kinase 2) was > 30 µM (inactive) in each case.

For `CC(=O)Nc1cccc(-n2c(=O)n(C3CC3)c(=O)c3c(Nc4ccc(I)cc4F)n(C)c(=O)c(C)c32)c1` [TRAMETINIB], the Kd (at Heme oxygenase 2; in [1]; in assay [2]; in assay [3]; in [4]; in assay [5]) was > 30 µM (inactive) throughout. In addition, the Kd (in assay [6]; in [7]; in assay [8]; at LIM domain kinase 2) was > 30 µM (inactive) in each case.

For the compound `Cn1ncc(Cl)c1-c1cc(C(=O)N[C@H](CN)Cc2cccc(F)c2)sc1Cl` [AFURESERTIB], the Kd (on Heme oxygenase 2; in [1]; in [2]; in assay [3]; in assay [4]; in assay [5]) was > 30 µM (inactive) each time. For the same compound, the Kd (in [6]; in assay [7]; in assay [8]; at LIM domain kinase 2) was > 30 µM (inactive) throughout.

`CCCS(=O)(=O)Nc1ccc(F)c(C(=O)c2c[nH]c3ncc(-c4ccc(Cl)cc4)cc23)c1F` [VEMURAFENIB]: the Kd was > 30 µM (inactive) at Heme oxygenase 2; 2.14 µM (active) in [1]; > 30 µM (inactive) in [2]; > 30 µM (inactive) in [3]; > 30 µM (inactive) in [4]; > 30 µM (inactive) in [5]. In addition, the Kd (in assay [6]; in assay [7]; in assay [8]; at LIM domain kinase 2) was > 30 µM (inactive) throughout.
